Assay results reported in patent US7771931B2, “Methods for diagnosing and treating diseases and conditions associated with protein kinase Cλ” (The General Hospital Corporation, priority 2001, dated 2010).

Legend:
[1] = tested on: PKCλ; assay: Antisense morpholino injection into zebrafish embryos; format: in vivo; settings: injected into 1-4 cell embryos
Procedure: An antisense morpholino oligonucleotide of sequence 5′-[…]-3′ (SEQ ID NO:6) (GeneTools, LLC) was dissolved at a concentration of […] in 1× Danieau's buffer (5 mM Hepes pH 7.6, 58 mM NaCl, 0.7 mM KCl, 0.6 mM Ca (NO3)2, 0.4 mM MgSO4). One nL of this solution or 1× Danieau's buffer was injected into each 1-4 cell embryo before allowing the embryos to develop at 28.50° C.

[2] = tested on: mammalian cells; assay: Bromodeoxyuridine incorporation in mammalian cells; format: cell-based
[3] = tested on: C. elegans embryo; assay: Early development of the C. elegans embryo (par-2::GFP strain KK871); format: in vivo; settings: 34 μM concentramide
Procedure: C. eleganis strain KK871 (par-2::GFP) was maintained at 25° C. For each sample, 10-15 adult worms were soaked in 80 μL M9 medium containing 34 μM concentramide, 0.25% dimethyl sulfoxide for 30-60 minutes. Worms were then cut open with a scalpel, and embryos were mounted on 2% agarose pads with coverslips. Embryos were allowed to develop at 25° C. before being photographed live.

[4] = tested on: yeast; assay: Rate of proliferation of yeast; format: cell-based
[5] = tested on: zebrafish embryos; assay: Anterior-posterior patterning by in situ hybridization (Pax2.1, cmlc2), 18-somite zebrafish embryos; format: in vivo
Procedure: (§1) Digoxigenin-labeled antisense RNA probes were generated by ill vitro transcription for cmlc2 (Yelon et al., supra), vmhc (Yelon et al., supra), and pax2.1 (Krauss et al., Development 113:1193-1206, 1991). In situ hybridization was carried out as described (Oxtoby et al., Nucleic Acids Res. 21:1087-1095, 1993). For whole-mount immunohistochemistry, embryos were fixed in 4% paraformaldehyde in phosphate-buffered saline (S46 and 3G8) or 80% methanol, 20% dimethyl sulfoxide (α-ZO-1), permeablized in acetone for 30 minutes at −20° C. (3G8), blocked with 5% fetal bovine serum, and incubated with the antibodies S46, 3G8 (Vize et al., Dev. Biol. 171:531-540, 1995), or α-ZO-1. An anti-mouse-horseradish peroxidase conjugate was used as secondary antibody for S46 and 3G8, and an Alexa 488-labeled anti-mouse secondary antibody was used for α-ZO-1 staining.

[6] = tested on: zebrafish embryos; assay: Retina histology of treated zebrafish embryos (hematoxylin-eosin, dapi); format: in vivo; settings: concentramide-treated embryos
Excerpt: (§2) Fixed embryos were dehydrated, embedded in plastic (JB4, Polysciences, Inc.), and sectioned at 2-7 μm. Retinal sections were stained with hematoxylin-eosin or dapi.

[7] = tested on: zebrafish embryos; assay: Fusion order of heart primordia (cmlc2 expression, 16- and 18-somite stages); format: in vivo
Procedure: as §1

[8] = tested on: zebrafish embryos; assay: Small molecule treatment of developing zebrafish embryos, visual inspection of heart patterning
Excerpt: Visual inspection of the transparent embryos was used to identify small molecules that affect the global patterning of the heart.

[9] = tested on: zebrafish embryos; assay: Kidney epithelium of treated zebrafish embryos (apical marker 3G8); format: in vivo; settings: embryos exposed to concentramide
Procedure: as §1, §2

Compound: 5′-CTGTCCCGCAGCGTGGGCATTATGG-3′ (all phosphorodiamidate morpholino (PMO)) [antisense morpholino oligomers]
- phenotype of injected embryos compared with has mutation [1]: phenocopy the mutation entirely

Compound: CCCCCc1ccc(-c2ccc(/C=C/C(N)=O)cc2)nc1 [concentramide]
- effect on bromodeoxyuridine incorporation [2]: no effect
- Par2 localization [3]: retain proper localization of Par2 to the posterior pole
- asymmetry of first cell division [3]: normally asymmetric first cell division
- completion of development [3]: fail to complete development
- cytokinesis [3]: cytolinetic defects
- effect on rate of proliferation of yeast [4]: no effect
- distance between Pax2.1-expressing cells in the eyes and at the midbrain/hindbrain boundary ([5]; 18-somite embryos): reduced
- distance between the anterior edge of the cmlc2-expressing field and the anterior extreme of the embryo ([5]; 18-somite stage, n=12, wild-type 3.1+/−0.2): 2.2+/−0.3 arbitrary units
- defects in cell polarity, RPE continuity, or lamination of the retina [6]: do not exhibit defects
- fusion of posterior ends of the heart field [7]: failure to merge the posterior ends
- phenotype at 6 μM compared with 6 nM ([8]; 6 μM versus 6 nM): virtually the same phenotype
- brain development ([8]; concentramide-treated embryos): develop abnormally
- heart phenotype of exposed embryos ([8]; embryos exposed to concentramide): compact hearts that do not sustain a circulation
- cell death ([8]; general cytotoxicity): no increase in cell death is apparent
- development relative to untreated siblings ([8]; general cytotoxicity): not delayed
- stage before which concentramide must be present to induce the concentric chamber morphology ([8]; more precise staging, approximately 15 hpf): < 14 somite stage
- potency on specific molecular target versus other proteins affecting visible developmental processes ([8]; same phenotype at 6 μM and 6 nM): at least 1,000 times
- heart morphology at 24 hpf ([8]; treated after 17 hpf): wild-type heart morphology
- heart morphology at 24 hpf ([8]; treated at any time prior to 14 hpf): concentric chamber morphology
- brain and heart phenotype with timed treatment ([8]; treated between 9 and 14 hpf, concentric heart chamber phenotype preserved): eliminates this brain defect
- irregular epithelial cell shapes and gaps between cells in the kidney [9]: did not observe these defects
